Assay results reported in the NIST ThermoML archive (doi:10.1016/j.fluid.2015.04.017).

Experiment: xn = mol fraction of the nth substance listed
Conditions: 101 kPa, Liquid; for viscosity: Concentric cylinders viscometry; for mass density: Vibrating tube method

CCOC(=O)C(C)O (stereo not drawn) [DL-ethyl lactate] + CN1CCCC1=O
Conditions	mass density [kg/m3]	viscosity [mPa·s]
288.15 K, x1 = 0.0999	1040.68	2.34
288.15 K, x1 = 0.2	1041.7	2.601
288.15 K, x1 = 0.3001	1042.78	2.89
288.15 K, x1 = 0.4	1043.43	3.122
288.15 K, x1 = 0.4997	1043.89	3.352
288.15 K, x1 = 0.6	1043.93	3.508
288.15 K, x1 = 0.7002	1043.56	3.581
288.15 K, x1 = 0.7999	1042.82	3.567
288.15 K, x1 = 0.8997	1041.57	3.456
288.15 K, x1 = 1	1039.28	3.207
293.15 K, x1 = 0.0999	1036.17	2.125
293.15 K, x1 = 0.2	1037.14	2.347
293.15 K, x1 = 0.3001	1038.17	2.585
293.15 K, x1 = 0.4	1038.75	2.772
293.15 K, x1 = 0.4997	1039.12	2.952
293.15 K, x1 = 0.6	1039.06	3.066
293.15 K, x1 = 0.7002	1038.56	3.11
293.15 K, x1 = 0.7999	1037.68	3.08
293.15 K, x1 = 0.8997	1036.28	2.975
293.15 K, x1 = 1	1033.84	2.75
298.15 K, x1 = 0.0999	1031.66	1.941
298.15 K, x1 = 0.2	1032.59	2.132
298.15 K, x1 = 0.3001	1033.56	2.331
298.15 K, x1 = 0.4	1034.06	2.482
298.15 K, x1 = 0.4997	1034.35	2.624
298.15 K, x1 = 0.6	1034.17	2.706
298.15 K, x1 = 0.7002	1033.55	2.726
298.15 K, x1 = 0.7999	1032.53	2.692
298.15 K, x1 = 0.8997	1030.98	2.591
298.15 K, x1 = 1	1028.39	2.39
303.15 K, x1 = 0.0999	1027.16	1.785
303.15 K, x1 = 0.2	1028.05	1.947
303.15 K, x1 = 0.3001	1028.95	2.113
303.15 K, x1 = 0.4	1029.38	2.235
303.15 K, x1 = 0.4997	1029.57	2.349
303.15 K, x1 = 0.6	1029.29	2.41
303.15 K, x1 = 0.7002	1028.53	2.416
303.15 K, x1 = 0.7999	1027.37	2.378
303.15 K, x1 = 0.8997	1025.67	2.284
303.15 K, x1 = 1	1022.92	2.097
308.15 K, x1 = 0.0999	1022.66	1.646
308.15 K, x1 = 0.2	1023.5	1.786
308.15 K, x1 = 0.3001	1024.34	1.927
308.15 K, x1 = 0.4	1024.69	2.026
308.15 K, x1 = 0.4997	1024.79	2.116
308.15 K, x1 = 0.6	1024.38	2.16
308.15 K, x1 = 0.7002	1023.5	2.156
308.15 K, x1 = 0.7999	1022.2	2.115
308.15 K, x1 = 0.8997	1020.34	2.026
308.15 K, x1 = 1	1017.42	1.858
313.15 K, x1 = 0.0999	1018.16	1.525
313.15 K, x1 = 0.2	1018.95	1.646
313.15 K, x1 = 0.3001	1019.72	1.765
313.15 K, x1 = 0.4	1019.99	1.845
313.15 K, x1 = 0.4997	1020	1.918
313.15 K, x1 = 0.6	1019.48	1.948
313.15 K, x1 = 0.7002	1018.46	1.937
313.15 K, x1 = 0.7999	1017.01	1.896
313.15 K, x1 = 0.8997	1015	1.816
313.15 K, x1 = 1	1011.9	1.658
318.15 K, x1 = 0.0999	1013.66	1.417
318.15 K, x1 = 0.2	1014.4	1.523
318.15 K, x1 = 0.3001	1015.1	1.625
318.15 K, x1 = 0.4	1015.29	1.689
318.15 K, x1 = 0.4997	1015.19	1.748
318.15 K, x1 = 0.6	1014.55	1.768
318.15 K, x1 = 0.7002	1013.4	1.751
318.15 K, x1 = 0.7999	1011.81	1.712
318.15 K, x1 = 0.8997	1009.64	1.636
318.15 K, x1 = 1	1006.36	1.491
323.15 K, x1 = 0.0999	1009.17	1.329
323.15 K, x1 = 0.2	1009.85	1.422
323.15 K, x1 = 0.3001	1010.48	1.512
323.15 K, x1 = 0.4	1010.58	1.563
323.15 K, x1 = 0.4997	1010.38	1.615
323.15 K, x1 = 0.6	1009.62	1.62
323.15 K, x1 = 0.7002	1008.34	1.602
323.15 K, x1 = 0.7999	1006.6	1.568
323.15 K, x1 = 0.8997	1004.28	1.492
323.15 K, x1 = 1	1000.79	1.349
